This is an account of results in patent US20260374818A1, “CATIONIC PEPTIDES WITH BROAD SPECTRUM ACTIVITY” (priority 2023, published 2026).

Where a SMILES comes first, the peptide text is derived from it. [ ]: non-standard residue; d: D form.

For one data set, the system named is MRSA USA300 biofilms. Nature of the data set: Biofilm inhibition by >95% pure peptides (crystal violet), MRSA. The format is cell-based, methicillin resistant Staphylococcus aureus. Particulars: MRSA, 24 hours.
The subject of the next data set is MRSA preformed biofilms. Description: Biofilm eradication of 24-hr preformed biofilms (TTC metabolic dye), MRSA. In kind it is cell-based, methicillin resistant Staphylococcus aureus. As to conditions: 24-hr preformed biofilms treated overnight.
In data set [1] the test system is MRSA biofilms on human skin organoid. Nature of the data set: Skin organoid biofilm infection model, peptide solution, MRSA. In kind it is cell-based, methicillin resistant Staphylococcus aureus. As to conditions: peptide solution 4 hrs (FIG. 3A).
Data set [2] concerns PAO1 biofilms on human skin organoid. Description: Skin organoid biofilm infection model, peptide solution, PAO1. In kind it is cell-based, Pseudomonas aeruginosa. Particulars: peptide solution 4 hrs (FIG. 3B).
In data set [3] the test system is MRSA biofilms on N/TERT epithelial skin. Description: Skin organoid biofilm model, peptide-loaded collagen dressings, MRSA. In kind it is cell-based, methicillin resistant Staphylococcus aureus. As to conditions: compared to DJK-5 and ciprofloxacin.
Data set [4] has as its system P. aeruginosa biofilms on N/TERT epithelial skin. Nature of the data set: Skin organoid biofilm model, peptide-loaded collagen dressings, P. aeruginosa. In kind it is cell-based, Pseudomonas aeruginosa. Particulars: compared to DJK-5 and ciprofloxacin.
For a further data set, the system named is P. aeruginosa LESB58. Description: Murine model of abscess infections. In kind it is in vivo, murine; Pseudomonas aeruginosa.
Data set [5] is described as follows: Peptide aggregation in RPMI + 10% FBS with PBMCs (microscopy). In kind it is physicochemical. Particulars: 50 μg/ml, overnight. The procedure, abridged:
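Peptides added to human PBMCs in RPMI with 10% FBS, incubated overnight at 37 °C, 5% CO2; aggregation assessed qualitatively by inverted light microscopy at 10× magnification.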

Data set [6] relates to 3-day-old oral plaque (multispecies) biofilms. Description: Oral plaque biofilm model, long-term (1-3 days) exposure, dead cell volume. Particulars: for Proportion of dead biofilm cells: daily for 3 days, compared to DJK5 (FIG. 16A). In kind it is cell-based.
In data set [7] the test system is P. aeruginosa PAO1 biofilms.
Data set [8] relates to peripheral blood mononuclear cells (PBMCs). Nature of the data set: Cytotoxicity (LDH release), PBMCs.
Another data set relates to N/TERT keratinocytes. Nature of the data set: Cytotoxicity (LDH release), N/TERT keratinocytes.
For data set [9], the system named is human bronchiolar epithelial cells (HBEs). Description: Cytotoxicity (LDH release), human bronchiolar epithelial cells.
The subject of data set [10] is Enterococcus faecium #2-1. Nature of the data set: Biofilm inhibition (at least 80%), E. faecium. In kind it is cell-based. Particulars: E. faecium #2-1; n = 3; TSB + 1% glucose; 48 hours; crystal violet.
The test system of the next data set is MRSA USA300. Description: Biofilm inhibition (at least 80%), MRSA. The format is cell-based, methicillin resistant Staphylococcus aureus. Particulars: n = 4, 10% TSB + 0.1% glucose, 18-24 hours, crystal violet.
Data set [11] deals with Klebsiella pneumonia KPLN649. Nature of the data set: Biofilm inhibition (at least 80%), K. pneumonia. Particulars: K. pneumoniae KPLN649; n = 3; BM2 minimal media; 48 hours; crystal violet. The format is cell-based.
For data set [12], the system named is Acinetobacter baumannii Ab5075. Nature of the data set: Biofilm inhibition (at least 80%), A. baumannii. In kind it is cell-based. Particulars: n = 4, BM2 minimal media, 18-24 hours, crystal violet.
The next data set relates to P. aeruginosa PAO1. Nature of the data set: Biofilm inhibition (at least 80%), P. aeruginosa. In kind it is cell-based, Pseudomonas aeruginosa. As to conditions: n = 4, BM2 minimal media, 18-24 hours, crystal violet.
Data set [13] concerns Enterobacter cloacae 218R1. Description: Biofilm inhibition (at least 80%), E. cloacae. In kind it is cell-based. As to conditions: E. cloacae 218R1; n = 3; BM2 minimal media; 18-24 hours; crystal violet.
The next data set concerns E. coli O157:H7. Nature of the data set: Biofilm inhibition (at least 80%), E. coli. Particulars: n = 3, BM2 minimal media, 18-24 hours, crystal violet. In kind it is cell-based, Escherichia coli.
The test system of the next data set is red blood cells. Nature of the data set: Hemolysis. In kind it is cell-based, human. As to conditions: 4 hours. The procedure: Hemolysis: Peptide induced hemolysis was evaluated according to methods described previously [Hilchie, A. L., et al. (2016). Mastoparan is a membranolytic anti-cancer peptide that works synergistically with gemcitabine in a mouse model of mammary carcinoma. Biochimica Et Biophysica Acta, 1858(12), 3195-3204]. Briefly, red blood cells were obtained, with human ethics approval, from the blood of healthy volunteers collected in a sodium heparin tube and then rinsed three times in PBS, centrifuging between washes, to obtain the hematocrit (100% RBC). A 2.5% RBCs suspension was exposed to peptide at varying concentrations and incubated at 37 C in a 5% CO2 humidified atmosphere for 4 hours. Supernatants were collected following centrifugation (1100 rpm) and transferred to a flat bottom microtitre plate. The absorbance (490 nm) of each supernatant was measured on a BioTek Epoch Microplate Spectrophotometer. Percent hemolysis was calculated by comparing the absorbance arising from peptide treated cells to RBCs treated with […] (0% hemolysis) or lysed with 1% Triton X-100 (100% hemolysis).

For data set [14], the system named is 3-day-old oral plaque biofilms. Nature of the data set: Oral plaque biofilm model, brief (1 minute) exposure, dead cell volume. In kind it is cell-based. Particulars: 10 μg/mL, 1 minute (FIG. 11).

Consider `CC[C@@H](C)[C@@H](NC(=O)[C@@H](CCCNC(=N)N)NC(=O)[C@H](N)CCCCN)C(=O)N[C@H](CCCNC(=N)N)C(=O)N[C@H](Cc1c[nH]c2ccccc12)C(=O)N[C@@H](C(=O)N[C@@H](C(=O)N[C@H](CC(C)C)C(=O)N[C@H](CCCNC(=N)N)C(=O)N[C@@H](C(=O)N[C@@H](C(=O)N[C@H](CCCNC(=N)N)C(N)=O)[C@H](C)CC)C(C)C)[C@H](C)CC)C(C)C` [AB101-D, krirwvilrvir-NH2] (H-[dK][dR][dI][dR][dW][dV][dI][dL][dR][dV][dI][dR]-NH2), for which the IC50 came out at 270 nM in the data set with MRSA USA300 biofilms; 1400 nM with MRSA preformed biofilms; 1100 nM in data set [7] (read-out: Biofilm Inhibition IC50, PAO1, 24 hours, crystal violet); 1900 nM in the data set on PAO1 preformed biofilms (read-out: Biofilm Eradication IC50, PAO1, 24-hr preformed biofilms treated overnight, TTC). Further, the “Antibiofilm activity on skin organoid” value in data set [1] and in data set [2] was “excellent antibiofilm activity” in each case. For the same compound, the “Antibiofilm activity from collagen dressing” value is “clearly superior activity to both DJK-5 and ciprofloxacin” in data set [3]; “clearly superior activity to both DJK-5 and ciprofloxacin” in data set [4]. Besides, the Abscess size entry in the data set on P. aeruginosa LESB58 is “reduced abscess size”. The Peptide aggregation result in data set [5] is reported as “some small aggregates”. The figures for the “Proportion of dead biofilm cells” value in data set [6] (10 μg/ml) and in [6] (1 or 5 μg/ml) were “superior to DJK5 at killing bacteria cells” and “killed more of the biofilm cells”, respectively. In addition, in data set [7] (P. aeruginosa), the “Biofilm inhibition activity compared to DJK5” value is on record as ≥ 4 fold. In addition, the “Enhanced antibiofilm eradication activity” value with PAO1 preformed biofilms (P. aeruginosa, compared with DJK5) is on record as > 2 fold. For the same compound, the “Cytotoxicity (LDH)” value (in data set [8]; in the data set on N/TERT keratinocytes; in data set [9]) was “low toxicity” each time.

With `CC[C@@H](C)[C@@H](NC(=O)[C@@H](C)NC(=O)[C@@H](CCCNC(=N)N)NC(=O)[C@@H](Cc1c[nH]c2ccccc12)NC(=O)[C@@H](CCC(N)=O)NC(=O)[C@H](N)C(C)C)C(=O)N[C@H](CCCNC(=N)N)C(=O)N[C@@H](C(=O)N[C@@H](C(=O)N[C@@H](C(=O)N[C@@H](C(=O)N[C@H](CCCNC(=N)N)C(N)=O)[C@H](C)CC)C(C)C)[C@H](C)CC)C(C)C` [AB107-D, vqwrairvivir-NH2] (H-[dV][dQ][dW][dR][dA][dI][dR][dV][dI][dV][dI][dR]-NH2), the “Peptide/Antibiotic Concentration where at least 80% of biofilm growth was inhibited” value was 1 µg/mL in [10]; 1 µg/mL with MRSA USA300; 4 µg/mL in data set [11]; 1 µg/mL in data set [12]; 4 µg/mL in the data set with P. aeruginosa PAO1; 1 µg/mL in [13]. For the same compound, in the data set with E. coli O157:H7, the “Peptide/Antibiotic Concentration where at least 80% of biofilm growth was inhibited” value stood at 1 µg/mL. Besides, the Hemolysis entry in the data set with red blood cells was “non-toxic at all concentrations evaluated”. Further, in data set [6] (10 μg/mL, 1 or 3 days (FIG. 10)), the “Killing of oral plaque biofilms, long-term exposure” value was “significantly enhanced killing of the oral plaque biofilms”. In addition, the “Killing of oral plaque biofilms, brief exposure” value in data set [14] is given as “comparable to or better than peptide DJK-5”. In addition, in the data set on ESKAPEE Pathogens, the “Broad spectrum antibiofilm activity, more active than DJK5” value was 2-4 fold. Further, the “Cytotoxicity (LDH)” value in data set [8] is on record as “non-toxic at all concentrations evaluated”.
